From patent US12275731B2, “Azaindole inhibitors of wild-type and mutant forms of LRRK2” (DANA-FARBER CANCER INSTITUTE, INC., priority 2018, dated 2025)

Experiments:
Test in all cases: KinomeScan profiling
Type in all cases: binding
ACVR2A = target: T1, ACVR2A (Homo sapiens, UniProt P27037); conditions: read-out: % control
T1 construct: purchased KinomeScan®
Procedure, shortened: (§1)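 Selectivity was assessed by binding competition at 1 μM against 468 kinases. Values below 35% of control define an interaction.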

AURKC = target: T2, AURKC (Homo sapiens, UniProt Q9UQB9); conditions: read-out: % control
T2 construct: purchased KinomeScan®
T2 sequence (Q9UQB9 1-309): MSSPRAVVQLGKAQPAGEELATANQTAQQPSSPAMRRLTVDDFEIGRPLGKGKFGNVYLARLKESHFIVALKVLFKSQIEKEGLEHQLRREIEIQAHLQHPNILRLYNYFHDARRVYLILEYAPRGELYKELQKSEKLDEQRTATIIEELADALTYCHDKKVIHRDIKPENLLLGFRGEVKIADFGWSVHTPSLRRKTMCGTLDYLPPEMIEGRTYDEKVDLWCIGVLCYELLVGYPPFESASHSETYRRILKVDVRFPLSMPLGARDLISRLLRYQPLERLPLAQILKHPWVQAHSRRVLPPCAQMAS
Procedure, shortened: as §1

CAMK1 = CAMK1 (Homo sapiens, UniProt Q14012); conditions: CAMK1, 1 μM; read-out: % control
Chain of CAMK1 (Q14012 whole entry): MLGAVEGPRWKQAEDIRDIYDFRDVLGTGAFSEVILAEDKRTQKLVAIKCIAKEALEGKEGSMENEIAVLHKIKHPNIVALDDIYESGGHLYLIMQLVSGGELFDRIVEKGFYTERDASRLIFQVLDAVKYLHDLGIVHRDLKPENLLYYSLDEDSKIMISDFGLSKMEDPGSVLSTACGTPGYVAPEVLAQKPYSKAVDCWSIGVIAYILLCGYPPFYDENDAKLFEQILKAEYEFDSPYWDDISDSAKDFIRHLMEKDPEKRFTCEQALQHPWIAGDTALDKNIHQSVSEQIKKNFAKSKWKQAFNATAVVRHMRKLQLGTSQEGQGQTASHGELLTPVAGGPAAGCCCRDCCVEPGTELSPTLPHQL
Procedure, shortened: as §1

CAMK2A = CAMK2A (Homo sapiens, UniProt Q9UQM7); conditions: read-out: % control
Chain of CAMK2A (Q9UQM7 whole entry): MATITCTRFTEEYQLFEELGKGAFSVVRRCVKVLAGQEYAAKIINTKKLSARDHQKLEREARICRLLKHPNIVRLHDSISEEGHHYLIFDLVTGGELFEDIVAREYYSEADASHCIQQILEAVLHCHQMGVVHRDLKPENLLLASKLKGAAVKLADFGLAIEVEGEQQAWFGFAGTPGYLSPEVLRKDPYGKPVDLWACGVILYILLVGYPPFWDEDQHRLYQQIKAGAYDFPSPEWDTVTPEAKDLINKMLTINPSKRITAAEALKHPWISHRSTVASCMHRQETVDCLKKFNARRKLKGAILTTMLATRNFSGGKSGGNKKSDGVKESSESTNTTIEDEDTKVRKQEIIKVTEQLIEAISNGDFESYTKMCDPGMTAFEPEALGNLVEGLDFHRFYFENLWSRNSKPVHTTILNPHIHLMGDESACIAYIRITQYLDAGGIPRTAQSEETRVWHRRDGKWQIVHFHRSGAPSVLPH
Procedure, shortened: as §1

CLK3 = CLK3 (Homo sapiens, UniProt P49761); conditions: CLK3, 1 μM; read-out: % control
Chain of CLK3 (P49761 whole entry): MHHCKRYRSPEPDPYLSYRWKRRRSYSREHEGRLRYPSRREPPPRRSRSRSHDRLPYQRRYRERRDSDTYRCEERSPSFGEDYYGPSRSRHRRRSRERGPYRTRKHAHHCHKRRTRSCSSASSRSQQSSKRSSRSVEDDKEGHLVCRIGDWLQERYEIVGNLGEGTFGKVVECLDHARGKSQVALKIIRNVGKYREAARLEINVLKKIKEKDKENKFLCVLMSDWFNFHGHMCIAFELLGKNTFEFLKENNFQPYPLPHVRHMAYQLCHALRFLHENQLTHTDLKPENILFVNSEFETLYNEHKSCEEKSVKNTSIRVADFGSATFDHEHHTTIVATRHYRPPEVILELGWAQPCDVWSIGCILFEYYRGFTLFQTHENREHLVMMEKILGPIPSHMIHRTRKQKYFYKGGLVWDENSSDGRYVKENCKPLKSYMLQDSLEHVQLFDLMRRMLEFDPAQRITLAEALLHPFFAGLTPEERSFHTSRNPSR
Procedure, shortened: as §1

CSNK1D = CSNK1D (Homo sapiens, UniProt P48730); conditions: read-out: % control
Chain of CSNK1D (P48730 whole entry): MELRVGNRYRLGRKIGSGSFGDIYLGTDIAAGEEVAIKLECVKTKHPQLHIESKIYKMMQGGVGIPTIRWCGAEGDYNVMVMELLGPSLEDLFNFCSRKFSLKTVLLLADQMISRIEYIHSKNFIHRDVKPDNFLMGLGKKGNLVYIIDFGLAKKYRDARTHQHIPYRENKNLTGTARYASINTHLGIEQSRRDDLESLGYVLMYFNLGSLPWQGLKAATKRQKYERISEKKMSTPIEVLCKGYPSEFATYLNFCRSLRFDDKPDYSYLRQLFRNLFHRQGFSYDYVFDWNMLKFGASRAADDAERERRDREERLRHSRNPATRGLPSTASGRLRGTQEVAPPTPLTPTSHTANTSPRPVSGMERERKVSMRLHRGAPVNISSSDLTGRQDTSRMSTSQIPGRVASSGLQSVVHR
Procedure, shortened: as §1

CSNK2A1 = CSNK2A1 (Homo sapiens, UniProt P68400); conditions: CSNK2A1, 1 μM; read-out: % control
Chain of CSNK2A1 (P68400 whole entry): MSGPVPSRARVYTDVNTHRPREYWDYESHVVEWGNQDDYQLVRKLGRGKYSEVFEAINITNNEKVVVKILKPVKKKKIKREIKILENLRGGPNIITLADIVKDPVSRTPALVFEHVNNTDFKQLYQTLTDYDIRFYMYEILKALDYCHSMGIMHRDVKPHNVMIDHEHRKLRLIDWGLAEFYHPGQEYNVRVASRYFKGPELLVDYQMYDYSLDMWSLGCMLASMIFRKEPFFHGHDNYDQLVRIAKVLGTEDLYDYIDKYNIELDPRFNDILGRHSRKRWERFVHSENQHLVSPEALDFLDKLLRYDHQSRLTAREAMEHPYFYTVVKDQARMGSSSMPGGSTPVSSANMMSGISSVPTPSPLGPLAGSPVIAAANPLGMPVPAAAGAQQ
Procedure, shortened: as §1

EPHA6 = target: T3, EPHA6 (Homo sapiens, UniProt Q9UF33); conditions: EPHA6, 1 μM; read-out: % control
T3 sequence (Q9UF33 23-1036): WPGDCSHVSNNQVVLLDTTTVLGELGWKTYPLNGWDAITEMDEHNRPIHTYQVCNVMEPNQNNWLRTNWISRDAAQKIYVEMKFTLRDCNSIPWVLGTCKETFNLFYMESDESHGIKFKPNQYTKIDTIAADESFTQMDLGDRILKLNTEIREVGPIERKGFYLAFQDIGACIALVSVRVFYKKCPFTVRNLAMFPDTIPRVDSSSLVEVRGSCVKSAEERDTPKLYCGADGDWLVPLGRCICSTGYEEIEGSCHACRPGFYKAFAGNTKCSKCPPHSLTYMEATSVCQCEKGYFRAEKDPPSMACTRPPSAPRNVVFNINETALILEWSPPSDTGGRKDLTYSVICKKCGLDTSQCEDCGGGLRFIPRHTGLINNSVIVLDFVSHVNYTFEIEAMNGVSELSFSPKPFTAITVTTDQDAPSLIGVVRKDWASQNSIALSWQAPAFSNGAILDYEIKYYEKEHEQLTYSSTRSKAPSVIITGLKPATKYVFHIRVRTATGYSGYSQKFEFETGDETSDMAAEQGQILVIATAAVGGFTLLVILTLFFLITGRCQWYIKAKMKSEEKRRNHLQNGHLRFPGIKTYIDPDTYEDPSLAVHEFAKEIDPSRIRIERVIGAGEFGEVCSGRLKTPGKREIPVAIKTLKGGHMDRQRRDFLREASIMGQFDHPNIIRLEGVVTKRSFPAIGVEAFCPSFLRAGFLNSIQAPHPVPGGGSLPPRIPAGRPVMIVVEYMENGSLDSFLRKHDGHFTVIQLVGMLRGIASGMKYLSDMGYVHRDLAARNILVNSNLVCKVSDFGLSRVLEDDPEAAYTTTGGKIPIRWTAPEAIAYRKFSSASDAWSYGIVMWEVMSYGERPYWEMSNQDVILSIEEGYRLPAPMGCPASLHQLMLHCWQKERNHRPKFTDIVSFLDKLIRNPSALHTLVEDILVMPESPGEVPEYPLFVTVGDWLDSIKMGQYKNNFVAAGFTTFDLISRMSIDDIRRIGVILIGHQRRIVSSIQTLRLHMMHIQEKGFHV
Procedure, shortened: as §1

ERK1 = ERK1 (Homo sapiens, UniProt P27361); conditions: ERK1, 1 μM; read-out: % control
Chain of ERK1 (P27361 whole entry): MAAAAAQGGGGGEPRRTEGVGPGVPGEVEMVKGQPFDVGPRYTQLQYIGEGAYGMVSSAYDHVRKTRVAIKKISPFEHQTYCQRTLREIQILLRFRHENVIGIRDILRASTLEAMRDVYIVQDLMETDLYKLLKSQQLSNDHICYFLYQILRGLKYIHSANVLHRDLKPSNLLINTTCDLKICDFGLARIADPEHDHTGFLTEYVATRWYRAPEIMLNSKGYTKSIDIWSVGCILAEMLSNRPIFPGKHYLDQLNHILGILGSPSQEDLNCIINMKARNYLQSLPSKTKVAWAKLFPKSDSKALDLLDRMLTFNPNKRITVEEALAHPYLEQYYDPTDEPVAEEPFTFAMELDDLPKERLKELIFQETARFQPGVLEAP
Procedure, shortened: as §1

JNK2 = target: T4, JNK2 (Homo sapiens, UniProt P45984); conditions: JNK2, 1 μM; read-out: % control
T4 construct: purchased KinomeScan®
T4 sequence (P45984 whole entry): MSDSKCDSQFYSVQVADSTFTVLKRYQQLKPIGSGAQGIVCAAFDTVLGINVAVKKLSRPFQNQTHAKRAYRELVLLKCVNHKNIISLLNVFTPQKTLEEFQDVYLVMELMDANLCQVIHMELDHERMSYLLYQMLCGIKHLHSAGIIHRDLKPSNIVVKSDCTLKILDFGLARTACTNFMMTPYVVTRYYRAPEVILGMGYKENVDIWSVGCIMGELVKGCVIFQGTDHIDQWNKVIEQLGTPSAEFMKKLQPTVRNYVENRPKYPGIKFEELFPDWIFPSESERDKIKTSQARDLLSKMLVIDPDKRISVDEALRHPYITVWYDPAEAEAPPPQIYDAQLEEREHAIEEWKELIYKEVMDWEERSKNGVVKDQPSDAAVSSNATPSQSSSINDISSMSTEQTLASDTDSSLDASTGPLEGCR
Procedure, shortened: as §1

MET(Y1235D) = MET(Y1235D) (Homo sapiens, UniProt P08581, Y1235D); conditions: read-out: % control
Procedure, shortened: as §1

NEK6 = NEK6 (Homo sapiens, UniProt Q9HC98); conditions: NEK6, 1 μM; read-out: % control
Procedure, shortened: as §1

PIK4CB = target: T5, PIK4CB (Homo sapiens, UniProt Q9UBF8); conditions: read-out: % control
T5 construct: purchased KinomeScan® (panel service)
T5 sequence (Q9UBF8 whole entry): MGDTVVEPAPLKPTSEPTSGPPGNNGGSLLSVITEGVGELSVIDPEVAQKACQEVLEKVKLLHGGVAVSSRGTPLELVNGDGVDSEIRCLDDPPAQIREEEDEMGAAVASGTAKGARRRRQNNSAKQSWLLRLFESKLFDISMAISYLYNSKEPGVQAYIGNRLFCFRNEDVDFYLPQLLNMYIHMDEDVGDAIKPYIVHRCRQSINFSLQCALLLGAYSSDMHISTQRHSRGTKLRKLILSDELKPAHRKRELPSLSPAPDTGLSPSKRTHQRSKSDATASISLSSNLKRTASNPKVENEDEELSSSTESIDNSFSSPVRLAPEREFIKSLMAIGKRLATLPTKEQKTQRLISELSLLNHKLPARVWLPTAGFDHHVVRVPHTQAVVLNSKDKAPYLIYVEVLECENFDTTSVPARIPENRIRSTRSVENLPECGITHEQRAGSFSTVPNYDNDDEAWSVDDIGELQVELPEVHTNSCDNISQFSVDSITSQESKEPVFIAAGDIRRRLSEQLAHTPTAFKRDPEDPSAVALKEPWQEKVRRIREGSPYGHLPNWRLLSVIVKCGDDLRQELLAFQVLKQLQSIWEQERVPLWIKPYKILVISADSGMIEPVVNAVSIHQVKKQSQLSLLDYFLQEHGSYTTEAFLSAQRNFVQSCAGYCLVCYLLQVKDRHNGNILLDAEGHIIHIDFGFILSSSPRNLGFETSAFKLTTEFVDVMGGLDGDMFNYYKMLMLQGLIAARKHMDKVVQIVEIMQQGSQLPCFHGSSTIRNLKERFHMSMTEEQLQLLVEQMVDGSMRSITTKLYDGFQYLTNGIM
Procedure, shortened: as §1

PKAC-alpha = target: T6, PKAC-alpha (Homo sapiens, UniProt P17612); conditions: read-out: % control
T6 construct: purchased KinomeScan® (panel service)
Procedure, shortened: as §1

[1] = target: T7, RPS6KA5(Kin.Dom.2-C-terminal) (Homo sapiens, UniProt O75582); conditions: read-out: % control
T7 construct: RPS6KA5(Kin.Dom.2-C-terminal)
T7 sequence (O75582 426-687 limits assumed): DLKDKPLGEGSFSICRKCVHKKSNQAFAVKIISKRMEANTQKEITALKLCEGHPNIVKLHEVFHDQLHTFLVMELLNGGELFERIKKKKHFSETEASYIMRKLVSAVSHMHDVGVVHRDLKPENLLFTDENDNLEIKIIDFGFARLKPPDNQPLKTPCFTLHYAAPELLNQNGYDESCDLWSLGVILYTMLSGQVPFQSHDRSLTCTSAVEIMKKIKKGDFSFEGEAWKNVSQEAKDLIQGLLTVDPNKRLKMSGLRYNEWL
Procedure, shortened: as §1

[2] = target: T8, RSK1(Kin.Dom.2-C-terminal) (Homo sapiens, UniProt Q15418); conditions: read-out: % control
T8 construct: RSK1(Kin.Dom.2-C-terminal)
Procedure, shortened: as §1

[3] = target: T9, RSK2(Kin.Dom.1-N-terminal) (Homo sapiens, UniProt P51812); conditions: read-out: % control
T9 construct: RSK2(Kin.Dom.1-N-terminal)
T9 sequence (P51812 68-327 limits assumed): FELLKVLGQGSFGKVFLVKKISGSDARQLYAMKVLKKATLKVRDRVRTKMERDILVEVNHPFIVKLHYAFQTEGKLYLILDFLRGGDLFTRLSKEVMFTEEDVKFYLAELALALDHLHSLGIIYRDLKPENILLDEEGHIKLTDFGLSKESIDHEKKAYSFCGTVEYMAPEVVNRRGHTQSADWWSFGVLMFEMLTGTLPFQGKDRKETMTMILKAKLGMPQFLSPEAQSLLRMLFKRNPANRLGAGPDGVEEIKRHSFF
Procedure, shortened: as §1

p38-alpha = p38-alpha (Homo sapiens, UniProt Q16539); conditions: read-out: % control
Procedure, shortened: as §1

T1 sequence (P27037 20-513): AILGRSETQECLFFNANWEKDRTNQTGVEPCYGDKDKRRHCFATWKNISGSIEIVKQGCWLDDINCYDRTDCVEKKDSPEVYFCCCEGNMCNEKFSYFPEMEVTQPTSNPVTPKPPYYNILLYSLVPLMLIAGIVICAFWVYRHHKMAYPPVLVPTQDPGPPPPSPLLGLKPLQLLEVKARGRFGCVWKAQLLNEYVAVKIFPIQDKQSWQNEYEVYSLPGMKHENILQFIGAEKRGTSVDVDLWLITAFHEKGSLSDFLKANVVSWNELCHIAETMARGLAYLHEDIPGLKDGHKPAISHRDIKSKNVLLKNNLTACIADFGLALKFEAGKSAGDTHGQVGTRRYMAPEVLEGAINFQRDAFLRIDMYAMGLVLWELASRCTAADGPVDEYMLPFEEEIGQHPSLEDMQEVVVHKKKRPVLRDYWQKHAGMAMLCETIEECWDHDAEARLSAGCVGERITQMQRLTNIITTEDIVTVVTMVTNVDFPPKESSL

SMILES | remaining binding at 1 µM (ACVR2A) [%] | remaining binding at 1 µM (AURKC) [%] | remaining binding at 1 µM (CAMK1) [%] | remaining binding at 1 µM (CAMK2A) [%] | remaining binding at 1 µM (CLK3) [%] | remaining binding at 1 µM (CSNK1D) [%] | remaining binding at 1 µM (CSNK2A1) [%] | remaining binding at 1 µM (EPHA6) [%] | remaining binding at 1 µM (ERK1) [%] | remaining binding at 1 µM (JNK2) [%] | remaining binding at 1 µM (MET(Y1235D)) [%] | remaining binding at 1 µM (NEK6) [%] | remaining binding at 1 µM (PIK4CB) [%] | remaining binding at 1 µM (PKAC-alpha) [%] | remaining binding at 1 µM [1] [%] | remaining binding at 1 µM [2] [%] | remaining binding at 1 µM [3] [%] | remaining binding at 1 µM (p38-alpha) [%]
CNc1c(-c2cnn([C@H]3CCN(C(C)=O)C[C@@H]3F)c2)cnc2[nH]cc(Cl)c12 [Compound 77, 1-((3S,4S)-4-(4-(3-chloro-4-(methylamino)-1H-pyrrolo[2,3-b]pyridin-5-yl)-1H-pyrazol-1-yl)-3-fluoropiperidin-1-yl)ethan-1-one] | 99 | 26 | 84 | 100 | 88 | 84 | 75 | 93 | 100 | 17 | 56 | 92 | 59 | 100 | 100 | 99 | 54 | 100
CNc1c(-c2ccc(C(=O)N3CCC(N4CCOCC4)CC3)cc2)cnc2[nH]cc(Cl)c12 [Compound 96, (4-(3-chloro-4-(methylamino)-1H-pyrrolo[2,3-b]pyridin-5-yl)phenyl)(4-morpholinopiperidin-1-yl)methanone] | 97 | 49 | 87 | 96 | 98 | 90 | 72 | 98 | 100 | 0.85 | 83 | 88 | 58 | 100 | 100 | 100 | 54 | 92
O=C(c1ccc(-c2cnc3[nH]cc(Cl)c3c2NC2CCCC2)cc1)N1CCC(N2CCOCC2)CC1 [Compound 101, (4-(3-chloro-4-(cyclopentylamino)-1H-pyrrolo[2,3-b]pyridin-5-yl)phenyl)(4-morpholinopiperidin-1-yl)methanone] | 95 | 71 | 98 | 92 | 97 | 92 | 100 | 43 | 98 | 8.8 | 30 | 100 | 100 | 100 | 96 | 88 | 65 | 100
